Laboratory results taken from ChEMBL document CHEMBL4229543, “Squaramides as novel class I and IIB histone deacetylase inhibitors for topical treatment of cutaneous t-cell lymphoma” (Bioorg Med Chem Lett, 2018).
Converted amounts (≈) assume the structure as drawn.

Legend:
[1] = Clearance in human hepatocytes assessed per million cells at 1 uM after 5 to 90 mins by LC-MS/MS analysis; assay type: ADME, cell-based, Hepatocyte; conditions: read-out: CLH
Histone deacetylase 1 = Histone deacetylase 1 (Homo sapiens, UniProt Q13547); test: Inhibition of human recombinant HDAC1 using Fluor de Lys as substrate after 2 hrs by fluorescence method
[2] = Solubility in pH 7.4 phosphate buffer solution at 100 uM after 24 hrs by HPLC method; assay type: physicochemical; conditions: for solubility at 24 h, 100 µM: phosphate buffer, pH 7.4
[3] = Solubility in PG/EtOH (96%) at 30 mg/mL after 24 hrs by UV-spectrometric method; assay type: physicochemical; conditions: for solubility at 24 h: PG/EtOH (96%)
HuT78 = test: Pro-apoptotic activity in human HUT78 cells after 18 hrs by caspase-Glo 3/7 assay; assay type: functional, cell-based; conditions: HuT78, 18 h

Histone deacetylase 1, sequence (Q13547 whole entry): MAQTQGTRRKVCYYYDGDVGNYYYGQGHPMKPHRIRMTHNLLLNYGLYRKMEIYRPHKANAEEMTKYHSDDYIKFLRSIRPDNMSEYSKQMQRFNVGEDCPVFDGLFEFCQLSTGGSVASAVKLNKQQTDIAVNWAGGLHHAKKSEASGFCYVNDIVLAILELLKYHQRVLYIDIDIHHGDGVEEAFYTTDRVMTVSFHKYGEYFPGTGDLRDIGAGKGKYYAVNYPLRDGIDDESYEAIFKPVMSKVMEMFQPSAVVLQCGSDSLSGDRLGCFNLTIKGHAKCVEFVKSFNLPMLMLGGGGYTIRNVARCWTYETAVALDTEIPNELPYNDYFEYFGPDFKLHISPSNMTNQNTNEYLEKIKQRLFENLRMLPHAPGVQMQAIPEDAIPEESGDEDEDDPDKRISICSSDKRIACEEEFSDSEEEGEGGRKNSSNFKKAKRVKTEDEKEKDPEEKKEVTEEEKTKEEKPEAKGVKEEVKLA

Structure (SMILES) | hepatocyte CLint at 1 µM [1] [µL/min/1e6 cells] | Ki (Histone deacetylase 1) [nM] | solubility at 24 h, 100 µM [2] [µM] | solubility at 24 h [3] [µM] | EC50 (HuT78) [nM] | solubility ([2]; buffer, pH 7.4, 24 h, 100 µM) [µM] | solubility ([3]; 24 h) [µM]
O=C(CCCCCNc1c(Nc2ccccc2)c(=O)c1=O)NO | < 4.8 | 0.29 | 47 (≈ 14.9 µg/mL) | 2200 (≈ 698 µg/mL) | 28 | – | –
Cc1ccccc1[C@H](C)Nc1c(NCCCCCC(=O)NO)c(=O)c1=O | < 5 | 2.3 | 92 (≈ 33.1 µg/mL) | 47000 (≈ 16900 µg/mL) | 560 | – | –
O=C(CCCCCCNc1c(Nc2ccccc2)c(=O)c1=O)NO | < 5 | 0.56 | 6 (≈ 1.99 µg/mL) | 1800 (≈ 596 µg/mL) | 26 | – | –
CC(C)(Nc1c(NCCCCCC(=O)NO)c(=O)c1=O)c1ccccc1 | < 5 | 11 | 88 (≈ 31.6 µg/mL) | > 84000 | 1100 | – | –
Cc1ccc([C@H](C)Nc2c(NCCCCCC(=O)NO)c(=O)c2=O)cc1 | < 5 | 2.3 | 76 (≈ 27.3 µg/mL) | 5600 (≈ 2010 µg/mL) | 130 | – | –
C[C@H](Nc1c(NCCCCCC(=O)NO)c(=O)c1=O)c1ccccc1 | < 5 | 2.5 | 73 (≈ 25.2 µg/mL) | 28000 (≈ 9670 µg/mL) | 220 | – | –
O=C(CCCCCNc1c(NC2CCCCC2)c(=O)c1=O)NO | < 5 | 1.4 | 91 (≈ 29.4 µg/mL) | 8700 (≈ 2810 µg/mL) | 84 | – | –
C[C@@H](Nc1c(NCCCCCC(=O)NO)c(=O)c1=O)c1ccccc1 | < 5 | 4.8 | 80 (≈ 27.6 µg/mL) | 39000 (≈ 13500 µg/mL) | 100 | – | –
Cc1ccccc1Nc1c(NCCCCCC(=O)NO)c(=O)c1=O | < 5 | 4.4 | 89 (≈ 29.5 µg/mL) | 12000 (≈ 3980 µg/mL) | 280 | – | –
Cc1cccc([C@@H](C)Nc2c(NCCCCCC(=O)NO)c(=O)c2=O)c1 | < 5 | 11 | 89 (≈ 32 µg/mL) | 82000 (≈ 29500 µg/mL) | 160 | – | –
O=C(CCCCCCC(=O)Nc1ccccc1)NO [VORINOSTAT] | < 5 | – | 87 (≈ 23 µg/mL) | – | – | – | 32000 (≈ 8460 µg/mL)
O=C(CCCCCNc1c(NCc2ccccc2)c(=O)c1=O)NO | < 4.8 | 7.3 | 75 (≈ 24.9 µg/mL) | 5700 (≈ 1890 µg/mL) | 270 | – | –
Cc1cccc(Nc2c(NCCCCCC(=O)NO)c(=O)c2=O)c1 | 18 | 0.39 | 79 (≈ 26.2 µg/mL) | 11000 (≈ 3650 µg/mL) | 26 | – | –
COc1cc(Nc2c(NCCCCCC(=O)NO)c(=O)c2=O)ccc1N(C)C | < 5 | 0.5 | 93 (≈ 36.3 µg/mL) | 2600 (≈ 1020 µg/mL) | 290 | – | –
O=C(CCCCNc1c(Nc2ccccc2)c(=O)c1=O)NO | < 5 | 12 | 87 (≈ 26.4 µg/mL) | 32000 (≈ 9710 µg/mL) | 290 | – | –
Cc1cc2ccc(Nc3c(NCCCCCC(=O)NO)c(=O)c3=O)cc2[nH]1 | < 5 | 0.27 | 4.4 (≈ 1.63 µg/mL) | 9100 (≈ 3370 µg/mL) | 28 | – | –
COc1ccc(Nc2c(NC3(CCCCC(=O)NO)CCC3)c(=O)c2=O)cc1 | 17 | 0.063 | 82 (≈ 31.8 µg/mL) | – | 12 | – | –
CC[C@H](Nc1c(NCCCCCC(=O)NO)c(=O)c1=O)c1ccccc1 | < 5 | 9.4 | 75 (≈ 27 µg/mL) | 57000 (≈ 20500 µg/mL) | 170 | – | –

Now from value to compound:

hepatocyte CLint at 1 µM [1] [µL/min/1e6 cells] | Ki (Histone deacetylase 1) [nM] | solubility at 24 h, 100 µM [2] [µM] | solubility at 24 h [3] [µM] | EC50 (HuT78) [nM] | solubility ([2]; buffer, pH 7.4, 24 h, 100 µM) [µM] | solubility ([3]; 24 h) [µM] | Structure (SMILES)
9.2 | 0.056 | 99 (≈ 37.2 µg/mL) | – | 5.5 | – | – | COc1ccc(Nc2c(NC(C)(C)CCCCC(=O)NO)c(=O)c2=O)cc1
7.2 | 0.057 | 8.1 (≈ 2.68 µg/mL) | 1800 (≈ 596 µg/mL) | 1.7 | – | – | Cc1ccc(Nc2c(NCCCCCC(=O)NO)c(=O)c2=O)cc1
< 5 | 2.7 | 80 (≈ 30 µg/mL) | 27000 (≈ 10100 µg/mL) | 13 | – | – | C[C@H](CCCCC(=O)NO)Nc1c(Nc2ccc(N(C)C)cc2)c(=O)c1=O
6.6 | 1.9 | – | 5700 (≈ 2710 µg/mL) | 38 | < 1 | – | O=C(CCCCC(Cc1ccccc1)Nc1c(Nc2ccc(C(F)(F)F)cc2)c(=O)c1=O)NO (racemic)
21 | 0.28 | 30 (≈ 12 µg/mL) | 20000 (≈ 7990 µg/mL) | 18 | – | – | CC(CCCCC(=O)NO)Nc1c(Nc2ccc(C(F)(F)F)cc2)c(=O)c1=O (racemic)
< 5 | 0.91 | 12 (≈ 4.32 µg/mL) | 1400 (≈ 505 µg/mL) | 6.2 | – | – | CN(C)c1ccc(Nc2c(NCCCCCC(=O)NO)c(=O)c2=O)cc1
3.6 | 4.3 | 89 (≈ 33.3 µg/mL) | 28000 (≈ 10500 µg/mL) | 44 | – | – | C[C@@H](CCCCC(=O)NO)Nc1c(Nc2ccc(N(C)C)cc2)c(=O)c1=O
< 5 | 0.69 | 93 (≈ 30.8 µg/mL) | 46000 (≈ 15200 µg/mL) | 32 | – | – | CC(CCCCC(=O)NO)Nc1c(Nc2ccccc2)c(=O)c1=O (racemic)
7.1 | 0.27 | 85 (≈ 30.7 µg/mL) | 11000 (≈ 3980 µg/mL) | 12 | – | – | COc1ccc(Nc2c(NC(C)CCCCC(=O)NO)c(=O)c2=O)cc1 (racemic)
10 | 0.15 | 10 (≈ 4.38 µg/mL) | 21000 (≈ 9210 µg/mL) | 7.2 | – | – | C[C@H](CCCCC(=O)NO)Nc1c(Nc2ccc3cc(C(F)(F)F)[nH]c3c2)c(=O)c1=O
27 | 12 | 5.3 (≈ 2.27 µg/mL) | 6300 (≈ 2690 µg/mL) | 280 | – | – | CC(C)C(CCCCC(=O)NO)Nc1c(Nc2ccc(C(F)(F)F)cc2)c(=O)c1=O (racemic)
31 | 0.58 | 27 (≈ 11.2 µg/mL) | 70000 (≈ 29100 µg/mL) | 10 | – | – | C[C@H](CCCCC(=O)NO)Nc1c(Nc2ccc(OC(F)(F)F)cc2)c(=O)c1=O
11 | 0.23 | 4.5 (≈ 1.73 µg/mL) | 4700 (≈ 1810 µg/mL) | 4 | – | – | O=C(CCCCCNc1c(Nc2ccc(C(F)(F)F)cc2)c(=O)c1=O)NO
< 6.5 | 0.097 | 83 (≈ 28.7 µg/mL) | 4900 (≈ 1690 µg/mL) | 5.6 | – | – | Cc1ccc(Nc2c(NC(C)CCCCC(=O)NO)c(=O)c2=O)cc1 (racemic)
25 | 0.51 | 6.6 (≈ 2.73 µg/mL) | 25000 (≈ 10300 µg/mL) | 21 | – | – | CCC(CCCCC(=O)NO)Nc1c(Nc2ccc(C(F)(F)F)cc2)c(=O)c1=O (racemic)
